Five compounds from ChEMBL document CHEMBL1201862, “PubChem BioAssay data set” (2004) can be followed below.

In experiment [1] the test system is HEK293. Description: cells. The note with it: Homo sapiens.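 Note: cells exposed to compound for 14 hours overnight before viability readout.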
For experiment [2], the target named is Nucleotide-binding oligomerization domain-containing protein 1 (Homo sapiens, UniProt Q9Y239). The experiment in a line: NOD1 signaling inhibitors, SAR follow-up, revised (AID 2333). Format: functional.
Nucleotide-binding oligomerization domain-containing protein 1, sequence (Q9Y239 whole entry, the tested form may be a part): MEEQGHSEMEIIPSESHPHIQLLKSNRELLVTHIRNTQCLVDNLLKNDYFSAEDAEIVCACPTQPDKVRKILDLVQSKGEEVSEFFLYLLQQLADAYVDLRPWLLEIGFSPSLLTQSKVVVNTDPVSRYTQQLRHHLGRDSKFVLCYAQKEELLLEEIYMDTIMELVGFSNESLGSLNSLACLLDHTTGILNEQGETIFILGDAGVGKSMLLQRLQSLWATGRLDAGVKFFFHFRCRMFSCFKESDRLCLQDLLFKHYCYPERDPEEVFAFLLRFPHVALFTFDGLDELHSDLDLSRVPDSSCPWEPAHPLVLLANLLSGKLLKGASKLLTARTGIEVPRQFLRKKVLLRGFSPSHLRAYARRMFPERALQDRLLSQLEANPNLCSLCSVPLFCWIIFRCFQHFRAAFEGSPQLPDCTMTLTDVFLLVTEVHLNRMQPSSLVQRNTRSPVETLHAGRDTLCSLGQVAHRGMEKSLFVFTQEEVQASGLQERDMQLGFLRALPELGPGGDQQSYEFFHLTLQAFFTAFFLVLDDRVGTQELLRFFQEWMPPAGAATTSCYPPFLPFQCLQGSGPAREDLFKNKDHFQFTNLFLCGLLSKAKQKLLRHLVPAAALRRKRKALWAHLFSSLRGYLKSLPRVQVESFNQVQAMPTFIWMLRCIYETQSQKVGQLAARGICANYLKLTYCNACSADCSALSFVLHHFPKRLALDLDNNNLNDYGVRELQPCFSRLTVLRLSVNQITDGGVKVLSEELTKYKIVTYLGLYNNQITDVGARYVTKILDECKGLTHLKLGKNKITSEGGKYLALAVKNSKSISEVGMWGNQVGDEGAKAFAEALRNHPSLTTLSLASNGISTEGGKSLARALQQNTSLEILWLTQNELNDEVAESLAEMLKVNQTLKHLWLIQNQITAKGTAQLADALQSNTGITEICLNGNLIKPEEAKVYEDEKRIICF
Experiment [3] concerns the target Tumor necrosis factor (Homo sapiens, UniProt P01375). The experiment in a line: TNFa-triggered NF-kB activation inhibitors, SAR follow-up, cell-based, revised (AID 2337). Format: functional.
Experiment [4] deals with T-cell. Description: inhibitors of CD8+ T cell–vesicle binding, dose response, mouse 2C CD8+ T cells, flow cytometry (AID 485284). Format: functional.
The target of experiment [5] is T1, Kappa-type opioid receptor (Homo sapiens, UniProt P41145). The experiment in a line: SAR analysis of small molecule antagonists of the kappa opioid receptor via a luminescent beta-arrestin assay - Set 3. [Related pubchem assays (depositor defined):AID1777, AID1778, AID1785, AID1786, AID1966, AID2133, AID2136, AID2285, AID2495]. Format: functional.
T1 sequence (P41145 whole entry): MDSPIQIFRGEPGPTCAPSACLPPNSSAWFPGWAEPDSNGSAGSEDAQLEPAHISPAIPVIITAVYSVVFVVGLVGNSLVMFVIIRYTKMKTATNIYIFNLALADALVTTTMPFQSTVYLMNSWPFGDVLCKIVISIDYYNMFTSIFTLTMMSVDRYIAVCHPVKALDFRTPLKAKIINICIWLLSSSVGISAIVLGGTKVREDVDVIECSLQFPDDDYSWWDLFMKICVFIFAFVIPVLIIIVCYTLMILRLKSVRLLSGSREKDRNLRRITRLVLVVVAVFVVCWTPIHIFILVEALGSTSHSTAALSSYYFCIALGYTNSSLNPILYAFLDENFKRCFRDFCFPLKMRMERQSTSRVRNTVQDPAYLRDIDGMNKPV
For experiment [6], the target named is T1, Kappa-type opioid receptor. Description: SAR analysis of Antagonists of the Kappa Opioid Receptor (KOR) using an Image-Based Assay - Set 3. [Related pubchem assays (depositor defined):AID1777, AID1785]. Format: functional.
The target in experiment [7] is Mu-type opioid receptor (Homo sapiens, UniProt P35372). Description: SAR Analysis of Antagonists of the MOR Receptor using an Image-Based Assay - Set 3. [Related pubchem assays (depositor defined):AID1777, AID1785, AID1786, AID1966, AID2133, AID2136, AID2284, AID2285, AID2420]. Format: functional.
Mu-type opioid receptor, sequence (P35372 whole entry): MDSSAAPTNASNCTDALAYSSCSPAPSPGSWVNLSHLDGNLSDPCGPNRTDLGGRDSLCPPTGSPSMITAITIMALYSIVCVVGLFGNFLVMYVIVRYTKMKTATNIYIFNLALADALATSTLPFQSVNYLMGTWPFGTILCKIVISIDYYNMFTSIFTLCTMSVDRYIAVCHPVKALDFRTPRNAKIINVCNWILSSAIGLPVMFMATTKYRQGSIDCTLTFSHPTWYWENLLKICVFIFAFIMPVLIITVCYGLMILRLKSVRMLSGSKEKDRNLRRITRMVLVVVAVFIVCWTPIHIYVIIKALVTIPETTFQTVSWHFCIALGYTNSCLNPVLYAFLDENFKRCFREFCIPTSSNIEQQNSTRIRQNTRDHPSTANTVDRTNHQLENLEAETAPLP
Experiment [8] addresses Delta-type opioid receptor (Homo sapiens, UniProt P41143). Description: SAR Analysis of Antagonists of the DOR Receptor using an Image-Based Assay - Set 3. [Related pubchem assays (depositor defined):AID1777, AID1785]. Format: functional.
The target of experiment [9] is T2, E3 ubiquitin-protein ligase XIAP (Homo sapiens, UniProt P98170). The experiment in a line: XIAP antagonists, biochemical, IAP family, fluorescence polarization (AID 1018). Format: functional.
T2 sequence (P98170 whole entry): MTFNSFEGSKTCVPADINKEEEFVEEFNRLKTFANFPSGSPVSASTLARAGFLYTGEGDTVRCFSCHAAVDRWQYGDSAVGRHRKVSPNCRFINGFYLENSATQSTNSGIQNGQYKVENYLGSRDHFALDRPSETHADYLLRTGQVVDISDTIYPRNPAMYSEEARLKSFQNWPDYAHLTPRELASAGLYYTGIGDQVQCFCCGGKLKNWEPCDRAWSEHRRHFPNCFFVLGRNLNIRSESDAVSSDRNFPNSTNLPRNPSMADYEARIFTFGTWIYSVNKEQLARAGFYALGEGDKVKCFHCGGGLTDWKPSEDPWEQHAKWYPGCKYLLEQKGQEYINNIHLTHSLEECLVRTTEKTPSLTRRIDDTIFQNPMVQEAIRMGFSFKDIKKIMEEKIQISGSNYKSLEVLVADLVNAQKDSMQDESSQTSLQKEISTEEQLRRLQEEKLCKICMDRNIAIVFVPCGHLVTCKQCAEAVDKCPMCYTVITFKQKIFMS
The target in experiment [10] is T2, E3 ubiquitin-protein ligase XIAP. The experiment in a line: Counter Screen using XIAP-Bir3 for Chemical Antagonists of Bir1/2 domains of IAP-family anti-apoptotic proteins. [Related pubchem assays (depositor defined):AID1018, AID1449, AID1514, AID1638, AID1749, AID1750, AID488957, AID488963].
The subject of experiment [11] is Vero. Description: Vero cell cytotoxicity, cytotoxicity control for flavivirus capping enzyme inhibitors (AID 588742). Format: functional. The note with it: Chlorocebus sabaeus.
Experiment [12] in a line: HepG2 cell cytotoxicity, dose response, cytotoxicity control, ATP luminescence, cherry-pick, activator set 2 (AID 1053143). Format: functional, cell-based.
Experiment [13] has as its target T3, Replicative DNA helicase DnaB (Mycobacterium tuberculosis, UniProt P9WMR3).
T3 sequence (P9WMR3 whole entry): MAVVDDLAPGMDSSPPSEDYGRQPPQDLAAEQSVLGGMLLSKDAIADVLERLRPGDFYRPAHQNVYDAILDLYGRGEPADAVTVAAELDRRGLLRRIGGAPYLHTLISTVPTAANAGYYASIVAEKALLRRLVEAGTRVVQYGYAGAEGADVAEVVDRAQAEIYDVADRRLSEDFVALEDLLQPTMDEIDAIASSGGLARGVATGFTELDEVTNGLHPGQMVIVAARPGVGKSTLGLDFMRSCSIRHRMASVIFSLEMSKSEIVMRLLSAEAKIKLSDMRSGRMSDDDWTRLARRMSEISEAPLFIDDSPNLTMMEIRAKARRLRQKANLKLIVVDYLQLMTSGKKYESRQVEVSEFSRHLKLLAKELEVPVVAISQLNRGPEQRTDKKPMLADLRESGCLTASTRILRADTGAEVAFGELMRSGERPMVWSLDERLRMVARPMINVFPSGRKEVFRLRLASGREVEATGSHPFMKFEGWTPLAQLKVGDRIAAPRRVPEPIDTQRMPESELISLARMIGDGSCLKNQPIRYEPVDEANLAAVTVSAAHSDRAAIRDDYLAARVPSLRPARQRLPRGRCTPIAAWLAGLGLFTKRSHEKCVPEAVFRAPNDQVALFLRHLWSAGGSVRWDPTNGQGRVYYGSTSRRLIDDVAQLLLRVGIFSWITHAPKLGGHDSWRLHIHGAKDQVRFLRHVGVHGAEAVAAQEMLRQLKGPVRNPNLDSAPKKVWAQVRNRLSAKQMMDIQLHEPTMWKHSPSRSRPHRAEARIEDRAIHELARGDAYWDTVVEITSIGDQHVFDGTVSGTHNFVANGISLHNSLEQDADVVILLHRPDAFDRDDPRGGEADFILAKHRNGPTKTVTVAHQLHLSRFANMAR
The experiment in a line: DnaB intein splicing inhibitors, dose response, biochemical, cell-free fluorescence (AID 449749). Format: functional.

Experiment [14] has as its target T4, Protein RecA (Mycobacterium tuberculosis, UniProt P9WHJ3).
T4 sequence (P9WHJ3 whole entry): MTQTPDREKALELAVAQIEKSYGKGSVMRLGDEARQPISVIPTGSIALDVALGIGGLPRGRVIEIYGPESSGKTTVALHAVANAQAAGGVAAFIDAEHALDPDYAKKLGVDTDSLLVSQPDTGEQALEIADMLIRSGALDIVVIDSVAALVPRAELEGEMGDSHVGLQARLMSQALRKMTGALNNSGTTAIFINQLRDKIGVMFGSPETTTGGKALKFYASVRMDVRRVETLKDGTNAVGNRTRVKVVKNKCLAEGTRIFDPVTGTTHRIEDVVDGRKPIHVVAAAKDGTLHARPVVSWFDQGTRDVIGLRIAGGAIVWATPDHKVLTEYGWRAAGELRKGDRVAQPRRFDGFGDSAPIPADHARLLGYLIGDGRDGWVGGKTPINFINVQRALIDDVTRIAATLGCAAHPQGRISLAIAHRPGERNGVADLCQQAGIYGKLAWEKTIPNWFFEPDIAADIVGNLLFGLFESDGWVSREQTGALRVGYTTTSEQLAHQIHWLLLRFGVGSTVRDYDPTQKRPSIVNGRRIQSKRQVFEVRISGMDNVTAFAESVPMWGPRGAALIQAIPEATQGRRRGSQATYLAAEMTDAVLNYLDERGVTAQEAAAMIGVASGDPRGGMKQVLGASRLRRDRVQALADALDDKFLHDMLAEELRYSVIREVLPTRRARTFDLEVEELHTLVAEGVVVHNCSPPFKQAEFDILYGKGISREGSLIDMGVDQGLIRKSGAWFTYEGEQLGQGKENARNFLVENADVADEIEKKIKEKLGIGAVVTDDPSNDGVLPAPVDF
Description: Fluorescence Cell-Free Homogeneous Dose Retest to Identify Inhibitors of RecA-Intein Splicing Activity. [Related pubchem assays (depositor defined):AID2097, AID2223, AID489010, AID492950]. Format: functional.

Experiment [15] can be described thus: Intein inhibitors as potential Tuberculosis drugs, a cytotoxicity screen. [Related pubchem assays (depositor defined):AID2221, AID2223, AID434968, AID435010, AID449749, AID449750, AID489010]. Format: functional.
Experiment [16] is described as follows: Luminescence Cell-Based Dose Retest to Confirm Inhibitors of Cancer Stem Cells. [Related pubchem assays (depositor defined):AID2717, AID2721]. The note with it: Homo sapiens. Format: functional.
For experiment [17], the system named is INS1. Description: beta cell apoptosis inhibitors, cytokine rescue, dose response, luminescence, retest (AID 449756).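 Note: cell death triggered by IL-1 beta plus TNF-alpha plus IFN-gamma mixture; protective hits raise ATP signal compared with cytokine alone wells.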 Format: functional, cell-based. The note with it: Rattus norvegicus.
Experiment [18] concerns the target Genome polyprotein (dengue virus type 2, UniProt P29990). The experiment in a line: Dengue-2 NS5 methyltransferase inhibitors, primary screen, biochemical, confirmation dose response (AID 588689). Format: functional.

Active and inactive are the calls of the source.

Delta-type opioid receptor, sequence (P41143 whole entry): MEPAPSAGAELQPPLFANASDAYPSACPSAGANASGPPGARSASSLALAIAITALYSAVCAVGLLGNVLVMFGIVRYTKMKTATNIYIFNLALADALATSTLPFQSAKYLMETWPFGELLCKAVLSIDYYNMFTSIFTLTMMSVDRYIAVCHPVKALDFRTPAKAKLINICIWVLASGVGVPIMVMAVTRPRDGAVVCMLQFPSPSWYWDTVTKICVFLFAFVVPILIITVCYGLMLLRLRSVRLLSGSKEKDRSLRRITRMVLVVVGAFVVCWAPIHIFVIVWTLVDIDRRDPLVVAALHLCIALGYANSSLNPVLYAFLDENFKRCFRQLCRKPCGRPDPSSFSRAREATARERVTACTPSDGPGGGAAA
Tumor necrosis factor, sequence (P01375 whole entry): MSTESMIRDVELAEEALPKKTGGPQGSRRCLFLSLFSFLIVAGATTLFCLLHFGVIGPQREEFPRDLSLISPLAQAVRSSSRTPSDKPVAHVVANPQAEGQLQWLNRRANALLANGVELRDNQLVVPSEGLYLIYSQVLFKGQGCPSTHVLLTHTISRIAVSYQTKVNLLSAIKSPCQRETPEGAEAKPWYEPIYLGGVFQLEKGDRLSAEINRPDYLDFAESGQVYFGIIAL
Genome polyprotein, sequence (P29990 2492-3391 limits assumed): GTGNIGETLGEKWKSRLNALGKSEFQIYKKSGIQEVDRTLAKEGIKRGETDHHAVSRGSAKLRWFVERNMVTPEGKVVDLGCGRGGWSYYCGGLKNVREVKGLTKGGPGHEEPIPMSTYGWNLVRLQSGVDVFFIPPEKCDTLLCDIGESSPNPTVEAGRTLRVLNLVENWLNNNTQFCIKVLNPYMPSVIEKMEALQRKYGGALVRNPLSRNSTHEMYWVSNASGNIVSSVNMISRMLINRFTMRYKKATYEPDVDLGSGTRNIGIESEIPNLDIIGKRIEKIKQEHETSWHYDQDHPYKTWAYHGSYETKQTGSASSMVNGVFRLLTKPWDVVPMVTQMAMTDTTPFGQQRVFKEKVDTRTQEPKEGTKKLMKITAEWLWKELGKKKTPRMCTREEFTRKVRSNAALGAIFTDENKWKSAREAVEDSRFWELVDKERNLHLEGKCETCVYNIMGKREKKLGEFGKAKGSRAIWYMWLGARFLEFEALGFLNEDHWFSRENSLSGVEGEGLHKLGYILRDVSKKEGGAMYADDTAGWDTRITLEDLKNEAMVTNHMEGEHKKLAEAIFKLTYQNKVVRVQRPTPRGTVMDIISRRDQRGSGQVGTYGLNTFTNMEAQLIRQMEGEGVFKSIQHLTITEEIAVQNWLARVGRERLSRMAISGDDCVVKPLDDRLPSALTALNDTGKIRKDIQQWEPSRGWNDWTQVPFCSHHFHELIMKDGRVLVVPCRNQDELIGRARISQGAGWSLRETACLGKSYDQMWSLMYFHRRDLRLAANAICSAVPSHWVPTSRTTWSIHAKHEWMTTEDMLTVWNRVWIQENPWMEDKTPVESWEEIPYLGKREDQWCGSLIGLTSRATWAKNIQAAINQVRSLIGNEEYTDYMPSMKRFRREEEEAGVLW

On to `CC1CCc2c(sc(NC(=O)c3ccc(Cl)cc3)c2C(=O)O)C1` (stereo not drawn), for which the IC50 in [1] was 5.2 µM (active); in experiment [2], 1.37 µM (active); in [3], 4.41 µM (active).

Turning to `CCOC(=O)c1c(C=O)c2ccccc2n1CC`, the EC50 in experiment [4] was 27.8 µM (inactive).

For the compound `CCc1ccc(S(=O)(=O)NCc2ccc(C(=O)NCCN(CC)Cc3ccccc3)cc2)cc1`, the IC50 in [5] was 14.4 µM (inactive); in experiment [6], 1.99 µM (active); in experiment [7], 19.5 µM (inactive); in experiment [8], > 32 µM (inactive).

In the case of `CC(=O)NCCc1nc2ccccc2n1CCc1ccccc1`, the IC50 in experiment [9] was > 100 µM (not active); in experiment [10] it was > 100 µM (inactive).

For the compound `COC(=O)c1sc(-c2ccc(C(C)(C)C)cc2)cc1NC(=O)/C=C/C(=O)O`, the CC50 was 14.1 µM (active) in [11] and 11.5 µM (active) in [15]. For the same compound, the AC50 in experiment [12] is 23.4 µM (active); in [13], 2.55 µM (active); in [16], 3.96 µM (active); in experiment [17], 4.68 µM (active). Moreover, the EC50 in experiment [14] was 0.701 µM (active). Moreover, the IC50 in [18] was 65.2 µM (active).
